Results on eight compounds are retold here after patent publication US11434534B2, “Optimizing therapeutic options in personalized medicine” (CureMatch, Inc., priority 2016, dated 2022).

A short description of data set [1]: Tolerability in type 2 diabetes patient (Example 6). Format: in vivo, human. From the text:
A person over-weight man (Body Mass Index=37.5, clinical obesity class 2) with a 5-year history of type 2 diabetes consults a Diabetes Specialty Clinic in Paris (France) for recent weight gain, foot pain, and persistent nocturia. At the time of their initial appointment, the patient was taking simvastatin (ZOCOR®) for a hyperlipidemia and a “pancreatic elixir” in an attempt to improve their diabetes control. […] The laboratory tests performed the same day confirms the uncontrolled type 2 diabetes (evaluated by a level of glycosylated hemoglobin=8.3%-normal<7%), a normo-lipidemia, and an elevated urine micro-albumin level. The physician ordered a urine metabolite profiling. The post-analysis review of the results highlighted the upregulation of the IL-1 (interleukin 1), TNF (Tumor Necrosis Factor), and mTOR (Mammalian Target of Rapamycin) signaling pathways.
The association of IL-1 and TNF inhibitors together is not considered by the system, as it increases the risk of serious infections. […] All of these drugs are approved by the ANSM (French Agency for Medicines and Medical Products Security).

The subject of data set [2] is metastatic basal cell cancer. As to conditions: for response to earlier therapy: brain, bone and liver metastases, therapies before nivolumab. From the text: The interaction of this ligand (PD-L1) with the programmed death receptor (PD-1), expressed on T and B cells, alters the function of these cells leading to inhibition of autoimmunity and anti-tumor immunity.
The patient was started on nivolumab (OPDIVO®, anti-PD-1 antibody).

Data set [3] relates to hepatocellular carcinoma (HCC) with CDKN2A and CTNNB1 mutations. Nature of the data set: Clinical outcome of hepatocellular carcinoma patient (Example 1). Format: in vivo, human. Particulars: metastatic HCC after chemoembolization, before molecular profiling. From the text: Six months later, the physician logs in to the system via the web-interface and completes the physician's feedback survey regarding the regimen prescribed to their patient and the outcome observed. […] The entry corresponding to this observation was created in the clinical outcome database and will then be used in order to optimize similar cases.

On to `CCC(C)(C)C(=O)O[C@H]1C[C@@H](C)C=C2C=C[C@H](C)[C@H](CC[C@@H]3C[C@@H](O)CC(=O)O3)[C@H]21` [simvastatin], for which the tolerability result in data set [1] (taken for hyperlipidemia) is recorded as “well-tolerated”. `COc1ccc(Cl)cc1C(=O)NCCc1ccc(S(=O)(=O)NC(=O)NC2CCCCC2)cc1` [glibenclamide]: the “adverse effects that led to stopping the drug” value in data set [1] (human, in vivo) is “dizziness, sweating, and agitation”. `CS(=O)(=O)c1ccc(C(=O)Nc2ccc(Cl)c(-c3ccccn3)c2)c(Cl)c1` [vismodegib]: the “response to earlier therapy” value in data set [2] is given as “non-responsive”.

nivolumab: anti-PD-1 antibody: the response on scans result in data set [2] (after two months, PD-L1 (CD274) amplification) is “remarkable partial remission”. In data set [2] (human, in vivo), the toxicity result is “no toxicity”. On to `N.N.[Cl][Pt][Cl]` [cisplatin], for which the “response to earlier therapy” value in data set [2] was “short-lived response”. For `CC(=O)O[C@H]1C(=O)[C@@]2(C)[C@H]([C@H](OC(=O)c3ccccc3)[C@]3(O)C[C@H](OC(=O)[C@H](O)[C@@H](NC(=O)c4ccccc4)c4ccccc4)C(C)=C1C3(C)C)[C@]1(OC(C)=O)CO[C@@H]1C[C@@H]2O` [paclitaxel], in data set [2], the “response to earlier therapy” value is given as “short-lived response”. The same measure, in the same setting: under `Cc1c(C(=O)Nc2ccc(N3C[C@@H](C)O[C@@H](C)C3)nc2)cccc1-c1ccc(OC(F)(F)F)cc1` [sonidegib] stands “non-responsive”. `CNC(=O)c1cc(Oc2ccc(NC(=O)Nc3ccc(Cl)c(C(F)(F)F)c3)cc2)ccn1` [sorafenib]: the “disease course under treatment” value in data set [3] was “continued to progress”.
